In PMC11689655, “High-throughput screening of dual-target inhibitors for SARS-CoV-2 main protease and papain-like protease from Chebulae Fructus: in silico prediction and experimental verification” (Frontiers in Microbiology, 2024):
Where two headings read alike, the source gives them in different places.

Key:
SARS-CoV-2 Omicron BA.5 = assay: Antiviral activity (CPE inhibition) in Vero E6 cells, Omicron BA.5; assay type: cell-based; settings: read-out: EC50 against Omicron BA.5 variant
SARS-CoV-2 Omicron EG.5 = assay: Antiviral activity (CPE inhibition) in Vero E6 cells, Omicron EG.5; assay type: cell-based; settings: read-out: EC50 against Omicron EG.5 variant
[1] = Severe acute respiratory syndrome coronavirus 2, Vero C1008, 48 h

SMILES | EC50 (SARS-CoV-2 Omicron BA.5; [1]) [µM] | EC50 (SARS-CoV-2 Omicron EG.5; [1]) [µM] | EC50 (SARS-CoV-2 Omicron BA.5) [µM] | EC50 (SARS-CoV-2 Omicron EG.5) [µM]
O=C(OC[C@H]1O[C@@H](OC(=O)c2cc(O)c(O)c(O)c2)[C@H](OC(=O)c2cc(O)c(O)c(O)c2)[C@@H](OC(=O)c2cc(O)c(O)c(O)c2)[C@@H]1OC(=O)c1cc(O)c(O)c(O)c1)c1cc(O)c(O)c(O)c1 [PGG, 1,2,3,4,6-penta-O-galloyl-β-D-glucose] | 3.2 | 15.4 | – | –
Cn1cnc(Cn2c(=O)[nH]/c(=N\c3cc4cn(C)nc4cc3Cl)n(Cc3cc(F)c(F)cc3F)c2=O)n1 [S-217622, reference compound] | – | – | 0.09 | 0.06
O=C(OC[C@H]1O[C@@H](OC(=O)c2cc(O)c(O)c(O)c2)[C@H](OC(=O)c2cc(O)c(O)c(O)c2)[C@@H](OC(=O)c2cc(O)c(O)c(O)c2)[C@@H]1O)c1cc(O)c(O)c(O)c1 [TGG, 1,2,3,6-tetra-O-galloyl-β-D-glucose] | 25.7 | 37.3 | – | –
